# Reference: paper PMC10657444, “Design and evaluation of tadpole-like conformational antimicrobial peptides” (Communications Biology, 2023)
# Several values for one entry are separate records, joined by “and”; a condition that tells them apart may be missing. Identical values can stand only once. Non-standard residues stand in square brackets, D forms with d. Residues, ends and D or L forms follow the SMILES beside them.
# Columns and labels:
# MRSA USA 300 = experiment: Time-kill assay; assay type: cell-based, Staphylococcus aureus
# Protocol: Time-kill assays were done in tubes (in 1.5 mL of LB) and antibiotics at the 1 ×, 2 ×, 4 × and 8 × MIC. Tubes were inoculated (5 × 10^6 CFU/mL) with MRSA USA 300 and K. pneumoniae ATCC 700603 and incubated at 37 °C under shaking. Serial dilutions of the cultures were plated at each desired time point (0, 1, 3, 6, and 24 h), using a multichannel pipette as follows: in line 1 of a 96-well plate, 100 µL of bacterial suspension was added, while 90 µL of 0.9% sterile saline per well was added to the other lines. At selected time points, 100 µL of bacterial suspension was transferred from the time-kill assay plate to the first line. The wells were further diluted 1 in 10 (0.9% saline) for the appropriate number of dilutions and 10 μL of each dilution was spotted in duplicate onto MH agar plates, then incubated overnight at 37°C. The colonies in each spot were counted and used to calculate the number of viable CFU/mL remaining in the original culture by considering the dilution factors.
# [1] = tested on: K. pneumoniae ATCC 700603; experiment: microbe, parasite or virus in culture; assay type: cell-based, Klebsiella pneumoniae
# Protocol: MRSA USA 300 and K. pneumoniae ATCC 700603 were employed to assess the development of resistance. From inoculated microtiter panels, an aliquot of the well with the highest concentration permitting growth was taken and back diluted in fresh media to a turbidity of a 0.5 McFarland standard. This suspension was then further diluted and used to inoculate a fresh MIC panel resulting in a final concentration of 5 × 10^6 CFU/mL. Panels were incubated according to CLSI guidelines (M07, 11th edition, 2018), MICs were recorded and the next inoculum was prepared from the well containing the highest concentration of drug that allowed growth in identical fashion as described above.
compound,measurement,setting,value
CC[C@@H](C)[C@@H](NC(=O)[C@@H](Cc1ccccc1)NC(=O)[C@@H](Cc1ccccc1)NC(=O)[C@@H](Cc1ccccc1)NC(=O)[C@H](N)Cc1ccccc1)C(=O)N[C@H](CCCNC(=N)N)C(=O)N[C@H](CCCNC(=N)N)C(=O)N[C@H](CC(C)C)C(=O)N[C@H](Cc1ccccc1)C(=O)N[C@H](CCCNC(=N)N)C(N)=O [RI-HT2] (H-[dF][dF][dF][dF][dI][dR][dR][dL][dF][dR]-NH2; N-terminus assumed),"viable count, time-kill","MRSA USA 300; 8 × MIC, 0 h",17000000 CFU/mL and 16000000 CFU/mL
same,"viable count, time-kill","MRSA USA 300; 8 × MIC, 1 h",100 CFU/mL and 200 CFU/mL
same,"viable count, time-kill","MRSA USA 300; 8 × MIC, 3 h",0 CFU/mL
same,"viable count, time-kill","MRSA USA 300; 8 × MIC, 6 h",0 CFU/mL
same,"viable count, time-kill","MRSA USA 300; 8 × MIC, 24 h",0 CFU/mL
same,"viable count, time-kill","MRSA USA 300; MIC, 0 h",17000000 CFU/mL and 16000000 CFU/mL
same,"viable count, time-kill","MRSA USA 300; MIC, 1 h",4500000 CFU/mL and 3500000 CFU/mL and 3700000 CFU/mL
same,"viable count, time-kill","MRSA USA 300; MIC, 3 h",2300 CFU/mL and 1800 CFU/mL and 2200 CFU/mL
same,"viable count, time-kill","MRSA USA 300; MIC, 6 h",230000 CFU/mL and 380000 CFU/mL and 310000 CFU/mL
same,"viable count, time-kill","MRSA USA 300; MIC, 24 h",2000000000 CFU/mL and 3400000000 CFU/mL and 3000000000 CFU/mL
same,Concentration (MIC in drug resistance assay),"[1]; K. pneumoniae ATCC 700603, day 0",6.25 mg/L
same,Concentration (MIC in drug resistance assay),"[1]; K. pneumoniae ATCC 700603, day 1",6.25 mg/L
same,Concentration (MIC in drug resistance assay),"[1]; K. pneumoniae ATCC 700603, day 2",6.25 mg/L
same,Concentration (MIC in drug resistance assay),"[1]; K. pneumoniae ATCC 700603, day 3",6.25 mg/L
same,Concentration (MIC in drug resistance assay),"[1]; K. pneumoniae ATCC 700603, day 4",12.5 mg/L
same,Concentration (MIC in drug resistance assay),"[1]; K. pneumoniae ATCC 700603, day 5",6.25 mg/L
same,Concentration (MIC in drug resistance assay),"[1]; K. pneumoniae ATCC 700603, day 6",6.25 mg/L
same,Concentration (MIC in drug resistance assay),"[1]; K. pneumoniae ATCC 700603, day 7",12.5 mg/L
same,Concentration (MIC in drug resistance assay),"[1]; K. pneumoniae ATCC 700603, day 8",25 mg/L
same,Concentration (MIC in drug resistance assay),"[1]; K. pneumoniae ATCC 700603, day 9",12.5 mg/L
same,Concentration (MIC in drug resistance assay),"[1]; K. pneumoniae ATCC 700603, day 10",12.5 mg/L
same,Concentration (MIC in drug resistance assay),"[1]; K. pneumoniae ATCC 700603, day 11",12.5 mg/L
same,Concentration (MIC in drug resistance assay),"[1]; K. pneumoniae ATCC 700603, day 12",25 mg/L
same,Concentration (MIC in drug resistance assay),"[1]; K. pneumoniae ATCC 700603, day 13",12.5 mg/L
same,Concentration (MIC in drug resistance assay),"[1]; K. pneumoniae ATCC 700603, day 14",25 mg/L
same,Concentration (MIC in drug resistance assay),"[1]; K. pneumoniae ATCC 700603, day 15",25 mg/L
same,Concentration (MIC in drug resistance assay),"[1]; K. pneumoniae ATCC 700603, day 16",12.5 mg/L
same,Concentration (MIC in drug resistance assay),"[1]; K. pneumoniae ATCC 700603, day 17",25 mg/L
same,Concentration (MIC in drug resistance assay),"[1]; K. pneumoniae ATCC 700603, day 18",25 mg/L
same,Concentration (MIC in drug resistance assay),"[1]; K. pneumoniae ATCC 700603, day 19",25 mg/L
same,Concentration (MIC in drug resistance assay),"[1]; K. pneumoniae ATCC 700603, day 20",25 mg/L
same,Concentration (MIC in drug resistance assay),"[1]; K. pneumoniae ATCC 700603, day 21",25 mg/L
same,Concentration (MIC in drug resistance assay),"[1]; K. pneumoniae ATCC 700603, day 22",25 mg/L
same,Concentration (MIC in drug resistance assay),"[1]; K. pneumoniae ATCC 700603, day 23",25 mg/L
same,Concentration (MIC in drug resistance assay),"[1]; K. pneumoniae ATCC 700603, day 24",25 mg/L
same,Concentration (MIC in drug resistance assay),"[1]; K. pneumoniae ATCC 700603, day 25",25 mg/L
same,Concentration (MIC in drug resistance assay),"[1]; K. pneumoniae ATCC 700603, day 26",12.5 mg/L
same,Concentration (MIC in drug resistance assay),"[1]; K. pneumoniae ATCC 700603, day 27",25 mg/L
same,Concentration (MIC in drug resistance assay),"[1]; K. pneumoniae ATCC 700603, day 28",25 mg/L
same,Concentration (MIC in drug resistance assay),"[1]; K. pneumoniae ATCC 700603, day 29",25 mg/L
same,Concentration (MIC in drug resistance assay),"[1]; K. pneumoniae ATCC 700603, day 30",25 mg/L
same,Concentration (MIC in drug resistance assay),"[1]; K. pneumoniae ATCC 700603, day 31",25 mg/L
same,Concentration (MIC in drug resistance assay),"[1]; K. pneumoniae ATCC 700603, day 32",12.5 mg/L
same,Concentration (MIC in drug resistance assay),"[1]; K. pneumoniae ATCC 700603, day 33",25 mg/L
same,Concentration (MIC in drug resistance assay),"[1]; K. pneumoniae ATCC 700603, day 34",12.5 mg/L
same,Concentration (MIC in drug resistance assay),"[1]; K. pneumoniae ATCC 700603, day 35",25 mg/L
same,Concentration (MIC in drug resistance assay),"[1]; K. pneumoniae ATCC 700603, day 36",25 mg/L
same,Concentration (MIC in drug resistance assay),"[1]; K. pneumoniae ATCC 700603, day 37",12.5 mg/L
same,Concentration (MIC in drug resistance assay),"[1]; K. pneumoniae ATCC 700603, day 38",25 mg/L
same,Concentration (MIC in drug resistance assay),"[1]; K. pneumoniae ATCC 700603, day 39",25 mg/L
same,Concentration (MIC in drug resistance assay),"[1]; K. pneumoniae ATCC 700603, day 40",12.5 mg/L
same,increase in MIC after 40 passages,[1]; serial passage at sub-MIC,four-fold
